Test results reported in PubChem BioAssay AID1918942 (Molecular Pharmacology Branch, DTP, NCI, 2023).

Tested on: 743489-274-T-PDC complex spheroid viability
Assay: Anticancer human tumor 743489-274-T-PDC patient-derived renal cell carcinoma cell line growth inhibition
Settings: for IC50: curve of first compound; for viability, T/C: stronger effect = lower value
Outline: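 Multicellular complex spheroids of tumor cells with human endothelial cells (HUVEC) and mesenchymal stem cells; the LSD1 inhibitor iadademstat was combined with standard-of-care or investigational agents. Top concentration at or near clinical Cmax, half-log dilutions; final DMSO ≤0.25%.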

[1] = second compound 0.1 µM, first compound 0.0316 µM
[2] = second compound 0.1 µM, first compound 0.1 µM
[3] = second compound 0.1 µM, first compound 0.316 µM
[4] = second compound 0.1 µM, first compound 1 µM
[5] = second compound 0.1 µM, first compound 3.16 µM
[6] = second compound 0.1 µM, first compound 10 µM
[7] = second compound 0.316 µM, first compound 0.0316 µM
[8] = second compound 0.316 µM, first compound 0.1 µM
[9] = second compound 0.316 µM, first compound 0.316 µM
[10] = second compound 0.316 µM, first compound 1 µM
[11] = second compound 0.316 µM, first compound 3.16 µM
[12] = second compound 0.316 µM, first compound 10 µM
[13] = second compound 1 µM, first compound 0.0316 µM
[14] = second compound 1 µM, first compound 0.1 µM
[15] = second compound 1 µM, first compound 0.316 µM
[16] = second compound 1 µM, first compound 1 µM
[17] = second compound 1 µM, first compound 3.16 µM
[18] = second compound 1 µM, first compound 10 µM
[19] = second compound 3.16 µM, first compound 0.0316 µM
[20] = second compound 3.16 µM, first compound 0.1 µM
[21] = second compound 3.16 µM, first compound 0.316 µM
[22] = second compound 3.16 µM, first compound 1 µM
[23] = second compound 3.16 µM, first compound 3.16 µM
[24] = second compound 3.16 µM, first compound 10 µM
[25] = second compound 10 µM, first compound 0.0316 µM
[26] = second compound 10 µM, first compound 0.1 µM
[27] = second compound 10 µM, first compound 0.316 µM
[28] = second compound 10 µM, first compound 1 µM
[29] = second compound 10 µM, first compound 3.16 µM
[30] = second compound 10 µM, first compound 10 µM
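Further: spheroids exposed to compounds for 7 days before readout.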
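Wherever viability, T/C is given: 100% = DMSO vehicle control wells.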

| Compound | IC50 (second compound 0.1 µM) [µM] | IC50 (second compound 0.316 µM) [µM] | IC50 (second compound 1 µM) [µM] | IC50 (second compound 3.16 µM) [µM] | IC50 (second compound 10 µM) [µM] | viability, T/C [1] [%] | viability, T/C [2] [%] | viability, T/C [3] [%] | viability, T/C [4] [%] | viability, T/C [5] [%] | viability, T/C [6] [%] | viability, T/C [7] [%] | viability, T/C [8] [%] | viability, T/C [9] [%] | viability, T/C [10] [%] | viability, T/C [11] [%] | viability, T/C [12] [%] | viability, T/C [13] [%] | viability, T/C [14] [%] | viability, T/C [15] [%] | further results |
| --- | --- | --- | --- | --- | --- | --- | --- | --- | --- | --- | --- | --- | --- | --- | --- | --- | --- | --- | --- | --- | --- |
| CC1(C)CCC(CN2CCN(c3ccc(C(=O)NS(=O)(=O)c4ccc(NCC5CCOCC5)c([N+](=O)[O-])c4)c(Oc4cnc5[nH]ccc5c4)c3)CC2)=C(c2ccc(Cl)cc2)C1 + NC1CC1c1ccc(-c2cccc(O)c2)cc1 | > 10 | > 10 | > 10 | > 10 | > 10 | 90.8 | 119 | 106 | 110 | 122 | 117 | 107 | 120 | 112 | 110 | 119 | 120 | 105 | 102 | 117 | viability, T/C [16]: 130%; viability, T/C [17]: 113%; viability, T/C [18]: 107%; viability, T/C [19]: 103%; viability, T/C [20]: 104%; viability, T/C [21]: 111%; viability, T/C [22]: 109%; viability, T/C [23]: 121%; viability, T/C [24]: 94.8%; viability, T/C [25]: 109%; viability, T/C [26]: 103%; viability, T/C [27]: 128%; viability, T/C [28]: 111%; viability, T/C [29]: 113%; viability, T/C [30]: 95.3% |
| CC1COCCN1c1cc(C2(S(C)(=N)=O)CC2)nc(-c2ccnc3[nH]ccc23)n1 (stereo not given) + NC1CC1c1ccc(-c2cccc(O)c2)cc1 | > 10 | > 10 | > 10 | > 10 | > 10 | 94.6 | 103 | 92.3 | 94.6 | 74.4 | 68.3 | 99.5 | 96.6 | 99.6 | 101 | 90.1 | 73.3 | 89.6 | 101 | 104 | viability, T/C [16]: 95.1%; viability, T/C [17]: 76.4%; viability, T/C [18]: 70.8%; viability, T/C [19]: 107%; viability, T/C [20]: 114%; viability, T/C [21]: 97.4%; viability, T/C [22]: 102%; viability, T/C [23]: 75.3%; viability, T/C [24]: 66.6%; viability, T/C [25]: 114%; viability, T/C [26]: 102%; viability, T/C [27]: 104%; viability, T/C [28]: 110%; viability, T/C [29]: 74.7%; viability, T/C [30]: 70.8% |
